In the NIST ThermoML archive (doi:10.1016/j.jct.2018.01.024):

Test: mn = molality of the nth substance listed, in mol/kg
Conditions: Liquid

NC(N)=O [urea] + O
Conditions	mass density [kg/m3]
279.15 K, 101 kPa, Vibrating tube method, m1 = 0.1063	1001.79
279.15 K, 101 kPa, Vibrating tube method, m1 = 0.141	1002.39
279.15 K, 101 kPa, Vibrating tube method, m1 = 0.152	1002.57
279.15 K, 101 kPa, Vibrating tube method, m1 = 0.1809	1003.07
279.15 K, 101 kPa, Vibrating tube method, m1 = 0.2423	1004.12
279.15 K, 101 kPa, Vibrating tube method, m1 = 0.4362	1007.39
279.15 K, 101 kPa, Vibrating tube method, m1 = 0.5644	1009.51
279.15 K, 101 kPa, Vibrating tube method, m1 = 1.008	1016.61
279.15 K, 101 kPa, Vibrating tube method, m1 = 1.609	1025.68
279.15 K, 101 kPa, Vibrating tube method, m1 = 2.505	1038.19
280.15 K, 101 kPa, Vibrating tube method, m1 = 0.093	1001.51
280.15 K, 101 kPa, Vibrating tube method, m1 = 0.1063	1001.74
280.15 K, 101 kPa, Vibrating tube method, m1 = 0.141	1002.33
280.15 K, 101 kPa, Vibrating tube method, m1 = 0.152	1002.52
280.15 K, 101 kPa, Vibrating tube method, m1 = 0.1809	1003.02
280.15 K, 101 kPa, Vibrating tube method, m1 = 0.2423	1004.06
280.15 K, 101 kPa, Vibrating tube method, m1 = 0.4362	1007.31
280.15 K, 101 kPa, Vibrating tube method, m1 = 0.5644	1009.42
280.15 K, 101 kPa, Vibrating tube method, m1 = 1.008	1016.48
280.15 K, 101 kPa, Vibrating tube method, m1 = 1.609	1025.5
280.15 K, 101 kPa, Vibrating tube method, m1 = 2.505	1037.95
281.15 K, 101 kPa, Vibrating tube method, m1 = 0.093	1001.45
281.15 K, 101 kPa, Vibrating tube method, m1 = 0.1063	1001.67
281.15 K, 101 kPa, Vibrating tube method, m1 = 0.141	1002.26
281.15 K, 101 kPa, Vibrating tube method, m1 = 0.152	1002.46
281.15 K, 101 kPa, Vibrating tube method, m1 = 0.1809	1002.95
281.15 K, 101 kPa, Vibrating tube method, m1 = 0.2423	1003.99
281.15 K, 101 kPa, Vibrating tube method, m1 = 0.4362	1007.21
281.15 K, 101 kPa, Vibrating tube method, m1 = 0.5644	1009.31
281.15 K, 101 kPa, Vibrating tube method, m1 = 1.008	1016.33
281.15 K, 101 kPa, Vibrating tube method, m1 = 1.609	1025.3
281.15 K, 101 kPa, Vibrating tube method, m1 = 2.505	1037.71
282.15 K, 101 kPa, Vibrating tube method, m1 = 0.093	1001.37
282.15 K, 101 kPa, Vibrating tube method, m1 = 0.1063	1001.6
282.15 K, 101 kPa, Vibrating tube method, m1 = 0.141	1002.18
282.15 K, 101 kPa, Vibrating tube method, m1 = 0.152	1002.37
282.15 K, 101 kPa, Vibrating tube method, m1 = 0.1809	1002.86
282.15 K, 101 kPa, Vibrating tube method, m1 = 0.2423	1003.89
282.15 K, 101 kPa, Vibrating tube method, m1 = 0.4362	1007.1
282.15 K, 101 kPa, Vibrating tube method, m1 = 0.5644	1009.18
282.15 K, 101 kPa, Vibrating tube method, m1 = 1.008	1016.17
282.15 K, 101 kPa, Vibrating tube method, m1 = 1.609	1025.12
282.15 K, 101 kPa, Vibrating tube method, m1 = 2.505	1037.45
283.15 K, 101 kPa, Vibrating tube method, m1 = 0.093	1001.28
283.15 K, 101 kPa, Vibrating tube method, m1 = 0.1063	1001.51
283.15 K, 101 kPa, Vibrating tube method, m1 = 0.141	1002.09
283.15 K, 101 kPa, Vibrating tube method, m1 = 0.152	1002.27
283.15 K, 101 kPa, Vibrating tube method, m1 = 0.1809	1002.76
283.15 K, 101 kPa, Vibrating tube method, m1 = 0.2423	1003.78
283.15 K, 101 kPa, Vibrating tube method, m1 = 0.4362	1006.97
283.15 K, 101 kPa, Vibrating tube method, m1 = 0.5644	1009.04
283.15 K, 101 kPa, Vibrating tube method, m1 = 1.008	1016
283.15 K, 101 kPa, Vibrating tube method, m1 = 1.609	1024.89
283.15 K, 101 kPa, Vibrating tube method, m1 = 2.505	1037.2
288.15 K, 101 kPa, Vibrating tube method, m1 = 0.093	1000.63
288.15 K, 101 kPa, Vibrating tube method, m1 = 0.1063	1000.85
288.15 K, 101 kPa, Vibrating tube method, m1 = 0.141	1001.42
288.15 K, 101 kPa, Vibrating tube method, m1 = 0.152	1001.6
288.15 K, 101 kPa, Vibrating tube method, m1 = 0.1809	1002.08
288.15 K, 101 kPa, Vibrating tube method, m1 = 0.2423	1003.08
288.15 K, 101 kPa, Vibrating tube method, m1 = 0.4362	1006.2
288.15 K, 101 kPa, Vibrating tube method, m1 = 0.5644	1008.22
288.15 K, 101 kPa, Vibrating tube method, m1 = 1.008	1015
288.15 K, 101 kPa, Vibrating tube method, m1 = 1.609	1023.7
288.15 K, 101 kPa, Vibrating tube method, m1 = 2.505	1035.73
288.15 K, 101 kPa, Vibrating tube method, m1 = 3.376	1046.46
288.15 K, 101 kPa, Vibrating tube method, m1 = 4.33	1057.3
288.15 K, 101 kPa, Vibrating tube method, m1 = 5.39	1068.26
288.15 K, 101 kPa, Vibrating tube method, m1 = 8	1091.62
288.15 K, 101 kPa, Vibrating tube method, m1 = 9.9	1105.86
288.15 K, 101 kPa, Vibrating tube method, m1 = 12.8	1124.47
288.15 K, 10000 kPa, Constant-volume piezometry, m1 = 0.1809	1006.62
288.15 K, 10000 kPa, Constant-volume piezometry, m1 = 0.4362	1010.71
288.15 K, 10000 kPa, Constant-volume piezometry, m1 = 0.5644	1012.73
288.15 K, 10000 kPa, Constant-volume piezometry, m1 = 1.609	1028.1
288.15 K, 10000 kPa, Constant-volume piezometry, m1 = 2.505	1040.04
288.15 K, 10000 kPa, Constant-volume piezometry, m1 = 3.376	1050.69
288.15 K, 10000 kPa, Constant-volume piezometry, m1 = 5.39	1072.37
288.15 K, 10000 kPa, Constant-volume piezometry, m1 = 8	1095.6
288.15 K, 10000 kPa, Constant-volume piezometry, m1 = 10.99	1117.15
288.15 K, 10000 kPa, Constant-volume piezometry, m1 = 12.8	1128.28
288.15 K, 25000 kPa, Constant-volume piezometry, m1 = 0.1809	1013.33
288.15 K, 25000 kPa, Constant-volume piezometry, m1 = 0.4362	1017.37
288.15 K, 25000 kPa, Constant-volume piezometry, m1 = 0.5644	1019.38
288.15 K, 25000 kPa, Constant-volume piezometry, m1 = 1.609	1034.57
288.15 K, 25000 kPa, Constant-volume piezometry, m1 = 2.505	1046.37
288.15 K, 25000 kPa, Constant-volume piezometry, m1 = 3.376	1056.91
288.15 K, 25000 kPa, Constant-volume piezometry, m1 = 5.39	1078.39
288.15 K, 25000 kPa, Constant-volume piezometry, m1 = 8	1101.46
288.15 K, 25000 kPa, Constant-volume piezometry, m1 = 10.99	1122.84
288.15 K, 25000 kPa, Constant-volume piezometry, m1 = 12.8	1133.9
288.15 K, 50000 kPa, Constant-volume piezometry, m1 = 0.1809	1024.08
288.15 K, 50000 kPa, Constant-volume piezometry, m1 = 0.4362	1028.05
288.15 K, 50000 kPa, Constant-volume piezometry, m1 = 0.5644	1029.99
288.15 K, 50000 kPa, Constant-volume piezometry, m1 = 1.609	1044.87
288.15 K, 50000 kPa, Constant-volume piezometry, m1 = 2.505	1056.4
288.15 K, 50000 kPa, Constant-volume piezometry, m1 = 3.376	1066.74
288.15 K, 50000 kPa, Constant-volume piezometry, m1 = 5.39	1087.86
288.15 K, 50000 kPa, Constant-volume piezometry, m1 = 8	1110.67
288.15 K, 50000 kPa, Constant-volume piezometry, m1 = 10.99	1131.87
288.15 K, 50000 kPa, Constant-volume piezometry, m1 = 12.8	1142.81
288.15 K, 75000 kPa, Constant-volume piezometry, m1 = 0.1809	1034.29
288.15 K, 75000 kPa, Constant-volume piezometry, m1 = 0.4362	1038.17
288.15 K, 75000 kPa, Constant-volume piezometry, m1 = 0.5644	1040.07
288.15 K, 75000 kPa, Constant-volume piezometry, m1 = 1.609	1054.62
288.15 K, 75000 kPa, Constant-volume piezometry, m1 = 2.505	1065.93
288.15 K, 75000 kPa, Constant-volume piezometry, m1 = 3.376	1076.06
288.15 K, 75000 kPa, Constant-volume piezometry, m1 = 5.39	1096.81
288.15 K, 75000 kPa, Constant-volume piezometry, m1 = 8	1119.36
288.15 K, 75000 kPa, Constant-volume piezometry, m1 = 10.99	1140.4
288.15 K, 75000 kPa, Constant-volume piezometry, m1 = 12.8	1151.22
288.15 K, 100000 kPa, Constant-volume piezometry, m1 = 0.1809	1043.99
288.15 K, 100000 kPa, Constant-volume piezometry, m1 = 0.4362	1047.8
